Source: patent publication US6825350B2, “Sulfonamide and sulfamide substituted imidazoquinolines and methods for the treatment of periodontal disease using these and other immune response modifiers” (3M Innovative Properties Company, priority 1999, dated 2004)
Counter-ions that a name gives are not always drawn. Like-named read-outs stand apart in the source and are kept apart here.

Legend:
interferon (α) = test: Cytokine induction in human cells: interferon (α) by ELISA; assay type: cell-based; settings: human PBMCs, 18 to 24 hours incubation, ELISA of culture supernatant, read-out: Lowest Effective Concentration (μM) Interferon
[1] = system: tumor necrosis factor (α); test: Cytokine induction in human cells: tumor necrosis factor (α) by ELISA; assay type: cell-based; settings: Homo sapiens, PBMC, human PBMCs, 18 to 24 hours incubation, ELISA of culture supernatant; read-out: Lowest Effective Concentration (μM) Tumor Necrosis Factor

Compound | melting point | minimal effective concentration (interferon (α); Homo sapiens, PBMC) [µM] | minimal effective concentration [1] [µM] | minimal effective concentration (interferon (α)) [µM]
CCCCc1nc2c(N)nc3ccccc3c2n1CCCCNS(=O)(=O)c1cccc2cnccc12 [Example 11, N^5-[4-(4-Amino-2-butyl-1H-imidazo[4,5-c]quinolin-1-yl)butyl]-5-isoquinolinesulfonamide] | 96 °C (dec.) | 0.01 | 1.11 | 
CCCCc1nc2c(N)nc3ccccc3c2n1CCCCNS(=O)(=O)c1cccc2c(N(C)C)cccc12 [Example 1, N^1-[4-(4-Amino-2-butyl-1H-imidazo[4,5-c]quinolin-1-yl)butyl]-5-(dimethylamino)-1-naphthalenesulfonamide] | 223 to 224 °C | 0.12 | 3.33 | 
CN(C)c1cccc2c(S(=O)(=O)NCCCCn3cnc4c(N)nc5ccccc5c43)cccc12 [Example 2, N^1-[4-(4-Amino-1H-imidazo[4,5-c]quinolin-1-yl)butyl]-5-(dimethylamino)-1-naphthalenesulfonamide] | 200 to 201 °C | > 30 | > 30 | 
CCCCc1nc2c(N)nc3ccccc3c2n1CCCCNS(=O)(=O)c1ccc(N)cc1 (as salt: hydrochloride) | 203.1 to 205 °C |  |  | 
CCCCc1nc2c(N)nc3ccccc3c2n1CCCCNS(=O)(=O)c1cccc(N)c1 (as salt: hydrochloride) | 110.2 °C (dec.) |  |  | 
COCCc1nc2c(N)nc3c(c2n1CCCCNS(=O)(=O)c1ccc(F)cc1)CCCC3 [Example 14, N^1-{4-[4-Amino-2-(2-methoxyethyl)-6,7,8,9-tetrahydro-1H-imidazo[4,5-c]quinolin-1-yl]butyl}-4-fluoro-1-benzenesulfonamide] | 191 to 193 °C |  |  | 
CCCCc1nc2c(N)nc3ccccc3c2n1CCCCNS(=O)(=O)c1ccc([N+](=O)[O-])cc1 (as salt: hydrochloride) [Example 9, N^1-[4-(4-Amino-2-butyl-1H-imidazo[4,5-c]quinolin-1-yl)butyl]-4-nitro-1-benzenesulfonamide Hydrochloride] | 96 °C (dec.) |  |  | 

More lines, main results first:

melting point | Compound | minimal effective concentration (interferon (α); Homo sapiens, PBMC) [µM] | minimal effective concentration [1] [µM] | minimal effective concentration (interferon (α)) [µM]
75.5 to 79 °C | CCCCc1nc2c(N)nc3ccccc3c2n1CCCCNS(=O)(=O)c1ccccc1 [Example 5, N^1-[4-(4-Amino-2-butyl-1H-imidazo [4,5-c]quinolin-1-yl)butyl]-1-benzenesulfonamide] |  |  | 
137.5 to 141.5 °C | CCCCc1nc2c(N)nc3ccccc3c2n1CCCCNS(=O)(=O)c1cccs1 [Example 3, N^2-[4-(4-Amino-2-butyl-1H-imidazo[4,5-c]quinolin-1-yl)butyl]-2-thiophenesulfonamide] |  |  | 0.01
197 to 199.5 °C | CCCCc1nc2c(N)nc3ccccc3c2n1CCCCNS(=O)(=O)Cc1ccccc1 [Example 4, N-[4-(4-Amino-2-butyl-1H-imidazo[4,5-c]quinolin-1-yl)butyl]phenylmethanesulfonainide] |  |  | 
